Where no end group is shown, it is not given here.
Tests used:
[1] = system: LH surge; conditions: trigger in ART protocol with GnRH antagonist and FSH; cited from earlier work
[2] = in vivo; cited from earlier work
[3] = system: serum LH, FSH, E2; test: Physiological effects in healthy women, follicular phase (Example 11, Part 1); format: in vivo, human; conditions: 9.6 nmol/kg SC
Source text: The study population included healthy women, aged 18-35 years, with BMI 18-30 kg/m^2, no medical problems and not taking any medications or hormonal contraception. Three healthy, female subjects were selected and randomized and received a single dose of each of the three study regimens noted below (one regimen per study period). All women were scheduled for three Study D1 Visits (each during the follicular phase of the menstrual cycle). […] The order in which a subject receives one of the three study regimens was determined by a randomization matrix.
The study included a screening visit to collect participants' full medical history and to conduct a general medical examination and blood testing. The three study periods each consisted of three planned study visits per study period (excluding screening and follow-up). Study Day 1 (SD1) Visit of each study period occurred during the follicular phase of the menstrual cycle (days 1-4), and the SD2 and SD3 Visits occurred at 24- and 48-hrs post-dose, respectively (FIG. 14). A follow-up phone call happened 7-10 days post-dose in each study period.
Immediately following dosing, serum LH, FSH, E2 (oestradiol), P (progesterone) and SHBG levels were assessed at 30 minute intervals for up to 14 hours (FIGS. 15A-15C, 16A-16C, 17, 18, 19, 20A, and 20B). These PD variables were also assessed at 24 (Study Day 2) and 48 hours (Study Day 3) post-dose. SHBG changes less rapidly and was measured every 3 hours to reduce blood volume.
Up to 3 mL of blood volume were required for measurement of serum reproductive hormone levels (LH, FSH, E2 and P). Blood samples for serum analysis were collected in plain Vacutainer tubes (Beckton Dickson, Franklin Lakes, N.J., USA), and spun after clotting (˜1 hour at room temperature) for 10 minutes at 3000 rpm. Serum was then stored in a locked freezer at −20° C. until assay of serum reproductive hormone levels.

Substance: kisspeptin-54: previously shown to be clinically effective as a trigger for oocyte maturation in IVF studies (GTSLSPPPESSGSPQQPGLSAPHSRQIPAPQGAVLVQREKDLPNYNWNSFGLRF; ends and bridges not checked; UniProt Q15726 68-121, looked up)
- Time by which the LH surge resolved [1]: ≤ 36 h
- half-life [2]: 32 min
- Time of LH peak after administration [3]: 4 to 6 h

Reference: patent publication US11013780B2, “Methods of treating female infertility” (Myovant Sciences GmbH, priority 2016, dated 2021)
